The values below come from patent publication US12459931B2, “Benzothiophene derivative regulator, preparation method therefor and use thereof” (Shanghai Hansoh Biomedical Co., Ltd., priority 2019, dated 2025).

Series [1] in a line: Stability assay in liver microsome in vitro. It counts as in vitro ADME, Mouse. The protocol:
IV. Stability Assay in Liver Microsome In Vitro
To evaluate the metabolic stability of the compounds of the present invention in liver microsome in vitro.
Formulation of the working solution of the compound: 2 μL of the stock solution of the compound was added to 998 μL of phosphate buffer, and the final concentration was 20 μM.
Formulation of the working solution of the control compound (7-hydroxycoumarin): The formulation was consistent with that of the compound. • 3.2. Formulation of the working solution of liver microsome
78.1 μL of 20 mg/mL microsome was diluted to 2.5 mL with 100 mM phosphate buffer and mixed well, and the final concentration was 0.625 mg/mL. • 3.3. Formulation of NADPH and UDPGA
33.3 mg of NADPH and 25.8 mg of UDPGA were weighed respectively, followed by the addition of 2 mL of 100 mM phosphate buffer. The final concentrations were 20 mM. • 3.4. Formulation of the channel-forming reagent (Alamethicin)
1 mg of Alamethicin was weighed, to which 200 μL of DMSO was added to obtain a 5 mg/mL solution. 10 μL of this solution was added to 990 μL of phosphate buffer (pH 7.4), and the final concentration was 50 μg/mL. • 3.5. Formulation of the reaction stop solution
Stop solution: Cold acetonitrile containing 100 ng/mL labetalol hydrochloride and 400 ng/mL tolbutamide was used as internal standards, and stored in a refrigerator at 2 to 8° C. • 3.6. Incubation procedure
400 μL of the formulated liver microsome, 25 μL of the working solution of the compound […] and 25 μL of Alamethicin (50 μg/mL) were added to a 96-well plate successively, which was then pre-incubated at 37° C. for 10 min. 50 μL of the formulated NADPH/UDPGA was added to initiate the reaction, and the plate was incubated at 37° C. The total volume of the reaction system was 500 μL. The final contents of the components were as follows:
[…] The resulting sample was centrifuged at 4000 g for 10 min, and the supernatant was collected for LC-MS/MS analysis.

The subject of another series is Rats F344. The series is described as follows: Pharmacodynamic model of active escape experiment in rats. It counts as in vivo. To be noted: oral, dose 1 mg/kg, one hour before the test. Here is the method:
V. Pharmacodynamic Model of Active Escape Experiment in Rats
To evaluate the anti-schizophrenic effect of the compounds using the pharmacodynamic model of the active escape experiment in rats.
4. Formulation of the Vehicle and Compounds: • 4.1 Vehicle (0.5% CMC-Na+1% Tween80)
A certain mass (such as 1.0 g) of CMC-Na was weighed into a glass bottle, a certain volume (such as 200 mL) of purified water was added, and the resulting mixture was stirred to disperse evenly. 1% (v/v) Tween 80 was added according to the solution volume, and the resulting mixture was stirred overnight to obtain a homogeneous clear solution, which was stored at 2 to 8° C. for later use. • 4.2 Formulation of the compounds: […]
A formula amount of the compound was weighed, followed by the addition of a formula volume of 0.5% CMC-Na+1% Tween 80 solution. The compound solution was formulated before the administration, stored at 2 to 8° C., and used within 4 days.
The day before the compound screening test, a baseline test was performed. The test procedure was the same as 5.1.1 to 5.1.3, and the number of the baseline test was 20. The animals whose number of avoids reached 16 (80%) were grouped according to the number of avoids, 10 animals per group. The first group was administered with the vehicle orally, and the other groups were administered with the corresponding test compounds according to the experimental design. • 5.3 Compound screening test
The compound was administered orally (5 mL/kg) one hour before the test;
The test procedure was the same as 5.1.1 to 5.1.4, and the number of the test was 20.
The following data was collected by the software for data analysis: • Number of avoids of the animal; • Number of escape failures of the animal; • Escape latency of the animal;
All measurement data were expressed as mean±standard error (Mean±SEM), and analyzed by Graphpad 6 statistical software. The difference was considered to be significant when p<0.05.

Another series concerns the target 5-HT2A receptor (Homo sapiens (Human), UniProt P28223). The series is described as follows: Radioligand-receptor binding assay, 5-HT2A receptor ([3H]-Ketanserin). To be noted: [3H]-Ketanserin 2 nM, human 5-HT2A receptor membrane; read-out: 5HT-2A binding activity IC50. Here is the method: Determination of the Binding Ability of the Compounds of the Present Invention to 5-HT2A Receptor
The objective of this test example is to determine the affinity of the compounds for 5-HT2A receptor.
Assay buffer: 50 mM Tris-HCl pH 7.4, 4 mM CaCl2); wash solution: 50 mM Tris-HCl pH 7.4, stored at 4° C.; 0.5% PEI solution: 0.5 g PEI dissolve in 100 mL ddH2O, 4° C. storage of spare.
5 μL of the test compounds (0.005 nM to 100 nM, 10 concentrations in total) and 100 μL of buffer were added to a 96-well assay plate. 1.5 μL of cell membrane and 300 L of buffer were added to each well. The plate was shaken at 600 rpm for 5 min. A mixed solution of 100 μL of buffer and [^3H]-Ketanserin (the final concentration was 2 nM) was added to each well. The plate was shaken at 600 rpm for 5 min, and incubated at 27° C. for 30 min. The […]-96 GF/B filter plate pre-incubated with 0.5% PEI for 1 h was washed twice with the buffer (1 mL/well). The cell membrane suspension was added to the […]-96 GF/B filter plate, washed 4 times, and incubated at 55° C. for 10 min. 40 μL of ULTIMA GOLD was added to each well, and liquid scintillation counting was carried out.
(§1) The CPM (Counts per minute) values were determined by TopCount. […] The 10 concentrations of the compound were from 100 nM to 0.005 nM after 3-fold dilution of the reaction system. The percent inhibition rate and ten-point concentration data were fitted to the parametric nonlinear logistic equation by using GraphPad prism to calculate the IC50 values of the compound.

In series [2] the target is Human Dopamine D3 Receptor (Homo sapiens (Human), UniProt P35462). The experiment in a line: Radioligand-receptor binding assay, dopamine D3 receptor ([3H]-methylspiperone). As to conditions: [3H]-methylspiperone 0.5 nM, human D3 receptor membrane. Here is the method:
Determination of the Binding Ability of the Compounds of the Present Invention to Dopamine D3 Receptor
The objective of this test example is to determine the affinity of the compounds for dopamine D3 receptor.
Assay buffer: 50 mM Tris-HCl pH 7.4, 10 mM MgCl2; wash solution: 50 mM Tris-HCl pH 7.4, stored at 4° C.; 0.5% PEI solution: 0.5 g PEI dissolve in 100 mL ddH2O, 4° C. storage of spare.
5 μL of the test compounds (0.005 nM to 100 nM, 10 concentrations in total) and 100 μL of buffer were added to a 96-well assay plate. 1 μL of cell membrane and 300 μL of buffer were added to each well, and the plate was shaken at 600 rpm for 5 min. A mixed solution of 100 μL of buffer and [^3H]-methylspiperone (the final concentration was 0.5 nM) was added to each well. The plate was shaken at 600 rpm for 5 min, and incubated at 27° C. for 30 min. The […]-96 GF/B filter plate pre-incubated with 0.5% PEI for 1 h was washed twice with the buffer (1 mL/well). The cell membrane suspension was added to the […]-96 GF/B filter plate, washed 4 times, and incubated at 55° C. for 10 min. 40 μL of ULTIMA GOLD was added to each well, and liquid scintillation counting was carried out.
as §1

5-HT2A receptor, sequence (P28223 whole entry): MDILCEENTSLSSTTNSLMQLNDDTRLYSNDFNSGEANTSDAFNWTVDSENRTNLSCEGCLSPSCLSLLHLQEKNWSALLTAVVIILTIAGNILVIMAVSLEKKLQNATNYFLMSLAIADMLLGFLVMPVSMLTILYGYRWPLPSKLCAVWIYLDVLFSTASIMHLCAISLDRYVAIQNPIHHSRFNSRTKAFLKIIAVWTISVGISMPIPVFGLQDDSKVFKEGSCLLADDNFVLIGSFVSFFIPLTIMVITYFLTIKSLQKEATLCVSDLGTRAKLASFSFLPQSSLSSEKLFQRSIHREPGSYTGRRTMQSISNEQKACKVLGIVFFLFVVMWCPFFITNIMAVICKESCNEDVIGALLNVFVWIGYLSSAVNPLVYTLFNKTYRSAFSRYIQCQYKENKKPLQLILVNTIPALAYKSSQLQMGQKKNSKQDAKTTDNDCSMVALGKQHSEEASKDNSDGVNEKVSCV
Human Dopamine D3 Receptor, sequence (P35462 whole entry): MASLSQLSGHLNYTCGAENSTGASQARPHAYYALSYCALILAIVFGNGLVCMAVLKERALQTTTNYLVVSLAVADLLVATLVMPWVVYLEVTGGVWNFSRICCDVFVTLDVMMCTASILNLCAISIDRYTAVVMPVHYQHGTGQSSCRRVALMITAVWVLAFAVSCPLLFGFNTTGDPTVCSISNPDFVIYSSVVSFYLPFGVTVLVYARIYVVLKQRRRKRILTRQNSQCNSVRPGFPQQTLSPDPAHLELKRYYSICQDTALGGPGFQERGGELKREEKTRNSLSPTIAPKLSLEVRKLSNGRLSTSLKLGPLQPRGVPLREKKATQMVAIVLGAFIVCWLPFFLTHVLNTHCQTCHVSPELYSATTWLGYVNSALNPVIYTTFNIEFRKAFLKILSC

With `CN(C)C(=O)N[C@H]1CC[C@H](CCN2CCN(c3cccc(Cl)c3Cl)CC2)CC1` [Cariprazine, reference compound], the half-life at 1 μM in series [1] (CD-1, liver microsomes, pH 7.4, Mouse liver microsome 0.5 mg/mL, compound 1 μM, NADPH/UDPGA, read-out: Half life (t1/2)) worked out at 1.1 h. Further, the microsomal CLint at 1 μM in series [1] (CD-1, liver microsomes, pH 7.4, Mouse liver microsome, note: Slow <8.8, Rapid >48.0, read-out: Intrinsic clearance rate (CLint)) was determined as 21.1 µL/min/mg. Besides, the “Remaining (%, 120 min)” value in series [1] (Mouse liver microsome, 120 min) worked out at 30.5%. In the series with Rats F344, the CAR value was 45.5% and the EF worked out at 5.5%.

Consider `O=C(N[C@H]1CC[C@H](CCN2CCN(c3cccc4sccc34)CC2)CC1)N1CC(F)(F)C1` [Example 2, N-(Trans-4-(2-(4-(benzo[b]thiophen-4-yl)piperazin-1-yl)ethyl)cyclohexyl)-3,3-difluoro azetidine-1-carboxamide], for which the results for the IC50 (on 5-HT2A receptor; in series [2]) were 3.4 nM and 0.76 nM, respectively.

Take `CC1(O)CN(C(=O)N[C@H]2CC[C@H](CCN3CCN(c4cccc5sccc45)CC3)CC2)C1` [Example 3, N-(Trans-4-(2-(4-(benzo[b]thiophen-4-yl)piperazin-1-yl)ethyl)cyclohexyl)-3-hydroxy-3-methylazetidine-1-carboxamide]: the IC50 in series [2] is 1.59 nM.

As for `COC1(C)CN(C(=O)N[C@H]2CC[C@H](CCN3CCN(c4cccc5sccc45)CC3)CC2)C1` [Example 4, N-(Trans-4-(2-(4-(benzo[b]thiophen-4-yl)piperazin-1-yl)ethyl)cyclohexyl)-3-methoxy-3-methylazetidine-1-carboxamide], the IC50 was 0.26 nM at 5-HT2A receptor and 1.52 nM in series [2].

Molecule `CN(C)C(=O)N[C@H]1CC[C@](F)(CCN2CCN(c3cccc4sccc34)CC2)CC1` [Example 15, 3-(Cis-4-(2-(4-(benzo[b]thiophen-4-yl)piperazin-1-yl)ethyl)-4-fluorocyclohexyl)-1,1-dimethylurea] registered a concentration for half-maximal inhibition (IC50) in series [2] of 4.25 nM.

With `CCNC(=O)N[C@H]1CC[C@](F)(CCN2CCN(c3cccc4sccc34)CC2)CC1` [Example 16, 1-(Cis-4-(2-(4-(benzo[b]thiophen-4-yl)piperazin-1-yl)ethyl)-4-fluorocyclohexyl)-3-ethylurea], the values for the 50% inhibitory concentration (IC50) (at 5-HT2A receptor; in series [2]) were 2.07 nM and 0.57 nM, respectively.

Consider `CN(C)C(=O)NC1CCC(CCN2CCN(c3cccc4sccc34)CC2)CC1F` (stereo not shown) [Example 23, 3-(4-(2-(4-(Benzo[b]thiophen-4-yl)piperazin-1-yl)ethyl)-2-fluorocyclohexyl)-1,1-dimethylurea], for which the IC50 at 5-HT2A receptor came to 6.45 nM; in series [2], 2.69 nM.

Regarding `C[C@@H]1CN(c2cccc3sccc23)CCN1CC[C@H]1CC[C@H](Nc2ncc(C#N)cn2)CC1` [Example 44, 2-((Trans-4-(2-((R)-4-(benzo[b]thiophen-4-yl)-2-methylpiperazin-1-yl)ethyl)cyclohexyl)amino)pyrimidine-5-carbonitrile], the results for the 50% inhibitory concentration (IC50) (on 5-HT2A receptor; in series [2]) were 2.59 nM and 1.58 nM, respectively.

With `O=C(N[C@H]1CC[C@H](CCN2CCN(c3cccc4sccc34)CC2)CC1)c1ccco1` [Example 45, N-(Trans-4-(2-(4-(benzo[b]thiophen-4-yl)piperazin-1-yl)ethyl)cyclohexyl)furan-2-carboxamide], the concentration for half-maximal inhibition (IC50) was found to be 0.63 nM at 5-HT2A receptor and 0.12 nM in series [2].

Turning to `Cc1ccc(C(=O)N[C@H]2CC[C@H](CCN3CCN(c4cccc5sccc45)CC3)CC2)o1` [Example 46, N-(Trans-4-(2-(4-(benzo[b]thiophen-4-yl)piperazin-1-yl)ethyl)cyclohexyl)-5-methylfuran-2-carboxamide], the IC50 on 5-HT2A receptor was 0.91 nM; in series [2], 0.6 nM.

As to `COCC(=O)N[C@H]1CC[C@H](CCN2CCN(c3cccc4sccc34)CC2)CC1` [Example 47, N-(Trans-4-(2-(4-(benzo[b]thiophen-4-yl)piperazin-1-yl)ethyl)cyclohexyl)-2-methoxyacetamide], the IC50 turned out to be 0.96 nM at 5-HT2A receptor and 0.47 nM in series [2].

On to `CC(C)(O)CC(=O)N[C@H]1CC[C@H](CCN2CCN(c3cccc4sccc34)CC2)CC1` [Example 48, N-(Trans-4-(2-(4-(benzo[b]thiophen-4-yl)piperazin-1-yl)ethyl)cyclohexyl)-3-hydroxy-3-methylbutanamide], for which the results for the IC50 (on 5-HT2A receptor; in series [2]) were 0.83 nM and 0.36 nM, respectively.

For the molecule `Fc1cnc(N[C@H]2CC[C@H](CCN3CCN(c4cccc5sccc45)CC3)CC2)nc1` [Example 49, N-(Trans-4-(2-(4-(benzo[b]thiophen-4-yl)piperazin-1-yl)ethyl)cyclohexyl)-5-fluoropyrimidin-2-amine], the values for the IC50 (at 5-HT2A receptor; in series [2]) were 0.34 nM and 2.43 nM, respectively.

`CON(C)C(=O)N[C@H]1CC[C@H](CCN2CCN(c3cccc4sccc34)CC2)CC1` [Example 50, 3-(Trans-4-(2-(4-(benzo[b]thiophen-4-yl)piperazin-1-yl)ethyl)cyclohexyl)-1-methoxy-1-methylurea]: the IC50 on 5-HT2A receptor worked out at 2.16 nM; in series [2], 1.29 nM.

For `O=C(NC1CCC(CCN2CCN(c3cccc4sccc34)CC2)CC1F)c1ccco1` (stereo not shown) [Example 51, N-(4-(2-(4-(Benzo[b]thiophen-4-yl)piperazin-1-yl)ethyl)-2-fluorocyclohexyl)furan-2-carboxamide], the results for the IC50 (on 5-HT2A receptor; in series [2]) were 0.9 nM and 0.76 nM, respectively.

One may read the IC50 as the concentration at which inhibition is half-maximal.
